{"source": "ChEMBL document CHEMBL5223113", "about": "“Several non-salt and solid thienopyridine derivatives as oral P2Y12 receptor inhibitors with good stability” (Bioorg Med Chem Lett, 2022)", "key": {"[1]": {"test": "Stability in human plasma assessed as compound remaining measured at 5 mins relative to control", "format": "ADME, cell-free", "conditions": "read-out: Stability"}, "[2]": {"tested_on": "Rattus norvegicus", "test": "Anti-platelet activity against ADP-induced platelet aggregation in rat assessed as inhibition of platelet aggregation at 2 mg/kg relative to control", "format": "functional"}, "[3]": {"test": "Stability in human plasma assessed as compound remaining measured at 45 mins relative to control", "format": "ADME, cell-free", "conditions": "read-out: Stability"}, "[4]": {"tested_on": "Rattus norvegicus", "test": "Anti-platelet activity against ADP-induced platelet aggregation in rat assessed as inhibition of platelet aggregation at 0.5 mg/kg relative to control", "format": "functional"}, "[5]": {"test": "Toxicity in rat assessed as bleeding time by measuring ratio of ED200 to ED50 ratio by tail cutting assay", "conditions": "in vivo"}, "[6]": {"test": "Stability in human plasma assessed as compound remaining measured at 10 mins relative to control", "format": "ADME, cell-free", "conditions": "read-out: Stability"}, "[7]": {"test": "Toxicity in beagle dog assessed as emesis at 100 mg/kg/day oral gavage observed for 14 days", "format": "organism-based, Canis lupus familiaris", "conditions": "in vivo, 336 h, time 14 day"}, "[8]": {"test": "Toxicity in beagle dog assessed as mydriasis at 100 mg/kg/day oral gavage observed for 14 days", "format": "organism-based, Canis lupus familiaris", "conditions": "in vivo, 336 h, time 14 day"}, "[9]": {"test": "Stability in human plasma assessed as compound remaining measured at 150 mins relative to control", "format": "ADME, cell-free", "conditions": "read-out: Stability"}, "[10]": {"test": "Stability in human plasma assessed as compound remaining measured at 180 mins relative to control", "format": "ADME, cell-free", "conditions": "read-out: Stability"}, "[11]": {"test": "Stability in human plasma assessed as compound remaining measured at 30 mins relative to control", "format": "ADME, cell-free", "conditions": "read-out: Stability"}, "[12]": {"organism": "Rattus norvegicus", "test": "Inhibition of thrombosis in anteriovenous bypassed rat", "format": "functional"}, "[13]": {"test": "Toxicity in beagle dog assessed as ALP level at 100 to 300 mg/kg/day oral gavage observed for 14 days", "format": "organism-based, Canis lupus familiaris", "conditions": "in vivo, 336 h, dose 100-300 mg/kg/day, time 14 day"}, "[14]": {"test": "Stability in human plasma assessed as compound remaining measured at 300 mins relative to control", "format": "ADME, cell-free", "conditions": "read-out: Stability"}, "[15]": {"test": "Stability in human plasma assessed as compound remaining measured at 360 mins relative to control", "format": "ADME, cell-free", "conditions": "read-out: Stability"}, "[16]": {"test": "Toxicity in beagle dog assessed as abnormality in blood and biochemical index at 2000 mg/kg oral gavage observed for 14 days", "format": "organism-based, Canis lupus familiaris", "conditions": "in vivo, 336 h, time 14 day"}, "[17]": {"test": "Toxicity in beagle dog assessed as vomiting at 100 to 300 mg/kg/day oral gavage observed for 14 days", "format": "organism-based, Canis lupus familiaris", "conditions": "in vivo, 336 h, dose 100-300 mg/kg/day, time 14 day"}, "[18]": {"test": "Stability in human plasma assessed as compound remaining measured at 90 mins relative to control", "format": "ADME, cell-free", "conditions": "read-out: Stability"}, "[19]": {"test": "Stability in human plasma assessed as compound remaining measured at 240 mins relative to control", "format": "ADME, cell-free", "conditions": "read-out: Stability"}, "[20]": {"test": "Toxicity in beagle dog assessed as dilated pupil at 100 to 300 mg/kg/day oral gavage observed for 14 days", "format": "organism-based, Canis lupus familiaris", "conditions": "in vivo, 336 h, dose 100-300 mg/kg/day, time 14 day"}, "[21]": {"test": "Toxicity in beagle dog assessed as death at 2000 mg/kg oral gavage observed for 14 days", "format": "organism-based, Canis lupus familiaris", "conditions": "in vivo, 336 h, time 14 day"}, "[22]": {"tested_on": "Rattus norvegicus", "test": "Inhibition of thrombosis in anteriovenous bypassed rat at 1 mg/kg relative to control", "format": "functional"}, "[23]": {"test": "Toxicity in rat assessed as bleeding time by tail cutting assay", "conditions": "in vivo"}, "[24]": {"test": "Toxicity in beagle dog assessed as electrocardiogram at 100 to 300 mg/kg/day oral gavage observed for 14 days", "format": "organism-based, Canis lupus familiaris", "conditions": "in vivo, 336 h, dose 100-300 mg/kg/day, time 14 day"}, "[25]": {"tested_on": "Rattus norvegicus", "test": "Inhibition of thrombosis in anteriovenous bypassed rat at 3 mg/kg relative to control", "format": "functional"}, "[26]": {"test": "Stability in human plasma assessed as compound remaining measured at 120 mins relative to control", "format": "ADME, cell-free", "conditions": "read-out: Stability"}, "[27]": {"test": "Toxicity in beagle dog assessed as abnormality in blood and biochemical index at 100 to 300 mg/kg/day oral gavage observed for 14 days", "format": "organism-based, Canis lupus familiaris", "conditions": "in vivo, 336 h, dose 100-300 mg/kg/day, time 14 day"}, "[28]": {"tested_on": "Rattus norvegicus", "test": "Inhibition of thrombosis in anteriovenous bypassed rat at 30 mg/kg relative to control", "format": "functional"}, "[29]": {"tested_on": "Rattus norvegicus", "test": "Inhibition of thrombosis in anteriovenous bypassed rat at 10 mg/kg relative to control", "format": "functional"}, "[30]": {"test": "Stability in human plasma assessed as compound remaining measured at 60 mins relative to control", "format": "ADME, cell-free", "conditions": "read-out: Stability"}, "[31]": {"test": "Toxicity in beagle dog assessed as electrocardiogram at 2000 mg/kg oral gavage observed for 14 days", "format": "organism-based, Canis lupus familiaris", "conditions": "in vivo, 336 h, time 14 day"}, "[32]": {"test": "Toxicity in beagle dog assessed as increase in liver weight at 100 mg/kg/day oral gavage observed for 14 days", "format": "organism-based, Canis lupus familiaris", "conditions": "in vivo, 336 h, time 14 day"}, "[33]": {"test": "Stability in human plasma assessed as compound remaining measured at 20 mins relative to control", "format": "ADME, cell-free", "conditions": "read-out: Stability"}, "[34]": {"test": "Toxicity in beagle dog assessed as decrease in platelet aggregation at 100 mg/kg/day oral gavage observed for 14 days", "format": "organism-based, Canis lupus familiaris", "conditions": "in vivo, 336 h, time 14 day"}, "[35]": {"test": "Toxicity in beagle dog assessed as swelling of hepatocyte at 100 mg/kg/day oral gavage observed for 14 days", "format": "organism-based, Canis lupus familiaris", "conditions": "hepatocytes, 336 h, time 14 day"}, "[36]": {"tested_on": "Rattus norvegicus", "test": "Anti-platelet activity against ADP-induced platelet aggregation in rat assessed as inhibition of platelet aggregation at 1 mg/kg relative to control", "format": "functional"}, "[37]": {"test": "Toxicity in beagle dog assessed as ALT level at 100 to 300 mg/kg/day oral gavage observed for 14 days", "format": "organism-based, Canis lupus familiaris", "conditions": "in vivo, 336 h, dose 100-300 mg/kg/day, time 14 day"}, "[38]": {"test": "Toxicity in beagle dog assessed as increase in ALP at 100 mg/kg/day oral gavage observed for 14 days", "format": "organism-based, Canis lupus familiaris", "conditions": "in vivo, 336 h, time 14 day"}, "[39]": {"organism": "Rattus norvegicus", "test": "Anti-platelet activity against ADP-induced platelet aggregation in rat assessed as inhibition of platelet aggregation", "format": "functional"}, "[40]": {"tested_on": "Rattus norvegicus", "test": "Anti-platelet activity against ADP-induced platelet aggregation in rat assessed as inhibition of platelet aggregation at 8 mg/kg relative to control", "format": "functional"}, "[41]": {"tested_on": "Rattus norvegicus", "test": "Anti-platelet activity against ADP-induced platelet aggregation in rat assessed as inhibition of platelet aggregation at 4 mg/kg relative to control", "format": "functional"}}, "data": [{"smiles": "C/C=C/C(=O)Oc1cc2c(s1)CCN([C@H](C(=O)OC)c1ccccc1Cl)C2", "values": [{"measurement": "remaining at 5 min", "setting": "[1]", "value": 91.7, "unit": "%"}, {"measurement": "inhibition in vivo at 2 mg/kg", "setting": "[2]", "value": 77, "unit": "%"}, {"measurement": "remaining at 0.75 h", "setting": "[3]", "value": 28, "unit": "%"}, {"measurement": "inhibition in vivo at 0.5 mg/kg", "setting": "[4]", "value": 22.4, "unit": "%"}, {"measurement": "selectivity ratio", "setting": "[5]", "value": 1.97}, {"measurement": "remaining at 10 min", "setting": "[6]", "value": 82.3, "unit": "%"}, {"measurement": "Activity", "setting": "[7]", "value": "Toxic"}, {"measurement": "Activity", "setting": "[8]", "value": "Toxic"}, {"measurement": "remaining at 2.5 h", "setting": "[9]", "value": 0.588, "unit": "%"}, {"measurement": "remaining at 3 h", "setting": "[10]", "value": 0.231, "unit": "%"}, {"measurement": "remaining at 0.5 h", "setting": "[11]", "value": 44.7, "unit": "%"}, {"measurement": "ED50", "setting": "[12]", "value": 11.8, "unit": "mg/kg"}, {"measurement": "Activity", "setting": "[13]", "value": "Non-Toxic"}, {"measurement": "remaining at 5 h", "setting": "[14]", "value": 0, "unit": "%"}, {"measurement": "remaining at 6 h", "setting": "[15]", "value": 0, "unit": "%"}, {"measurement": "Activity", "setting": "[16]", "value": "Non-Toxic"}, {"measurement": "Activity", "setting": "[17]", "value": "Non-Toxic"}, {"measurement": "remaining at 1.5 h", "setting": "[18]", "value": 5.49, "unit": "%"}, {"measurement": "remaining at 4 h", "setting": "[19]", "value": 0, "unit": "%"}, {"measurement": "Activity", "setting": "[20]", "value": "Non-Toxic"}, {"measurement": "Activity", "setting": "[21]", "value": "Non-Toxic"}, {"measurement": "inhibition in vivo at 1 mg/kg", "setting": "[22]", "value": 18.3, "unit": "%"}, {"measurement": "ED200", "setting": "[23]", "value": 1.977, "unit": "mg/kg"}, {"measurement": "Activity", "setting": "[24]", "value": "Non-Toxic"}, {"measurement": "inhibition in vivo at 3 mg/kg", "setting": "[25]", "value": 43.2, "unit": "%"}, {"measurement": "remaining at 2 h", "setting": "[26]", "value": 1.7, "unit": "%"}, {"measurement": "Activity", "setting": "[27]", "value": "Non-Toxic"}, {"measurement": "inhibition in vivo at 30 mg/kg", "setting": "[28]", "value": 64.2, "unit": "%"}, {"measurement": "inhibition in vivo at 10 mg/kg", "setting": "[29]", "value": 56, "unit": "%"}, {"measurement": "remaining at 1 h", "setting": "[30]", "value": 18.3, "unit": "%"}, {"measurement": "Activity", "setting": "[31]", "value": "Non-Toxic"}, {"measurement": "Activity", "setting": "[32]", "value": "Toxic"}, {"measurement": "remaining at 20 min", "setting": "[33]", "value": 60.5, "unit": "%"}, {"measurement": "Activity", "setting": "[34]", "value": "Toxic"}, {"measurement": "Activity", "setting": "[35]", "value": "Toxic"}, {"measurement": "inhibition in vivo at 1 mg/kg", "setting": "[36]", "value": 50.2, "unit": "%"}, {"measurement": "Activity", "setting": "[37]", "value": "Non-Toxic"}, {"measurement": "Activity", "setting": "[38]", "value": "Toxic"}]}, {"smiles": "CCC/C=C/C(=O)Oc1cc2c(s1)CCN([C@H](C(=O)OC)c1ccccc1Cl)C2", "values": [{"measurement": "inhibition in vivo at 2 mg/kg", "setting": "[2]", "value": 74.3, "unit": "%"}, {"measurement": "inhibition in vivo at 0.5 mg/kg", "setting": "[4]", "value": 19.5, "unit": "%"}, {"measurement": "inhibition in vivo at 1 mg/kg", "setting": "[36]", "value": 52.8, "unit": "%"}]}, {"smiles": "CC/C=C/C(=O)Oc1cc2c(s1)CCN([C@H](C(=O)OC)c1ccccc1Cl)C2", "values": [{"measurement": "inhibition in vivo at 2 mg/kg", "setting": "[2]", "value": 62.9, "unit": "%"}, {"measurement": "inhibition in vivo at 0.5 mg/kg", "setting": "[4]", "value": 26.2, "unit": "%"}, {"measurement": "ED50", "setting": "[39]", "value": 1.23, "unit": "mg/kg"}, {"measurement": "inhibition in vivo at 8 mg/kg", "setting": "[40]", "value": 100, "unit": "%"}, {"measurement": "inhibition in vivo at 4 mg/kg", "setting": "[41]", "value": 78.4, "unit": "%"}, {"measurement": "inhibition in vivo at 1 mg/kg", "setting": "[36]", "value": 38.2, "unit": "%"}]}]}
